Residues, ends and D or L forms follow the SMILES beside them.

The values below come from US5942523A, “Compounds which are selective antagonists of the human NK3 receptor and their use as medicinal products and diagnostic tools” (Sanofi, priority 1994, dated 1999).

The target in one test is T1, human NK3 receptor (Homo sapiens, UniProt P29371).
T1 construct: expressed in transfected cells; host or cells: CHO cells
T1 sequence (P29371 1-465): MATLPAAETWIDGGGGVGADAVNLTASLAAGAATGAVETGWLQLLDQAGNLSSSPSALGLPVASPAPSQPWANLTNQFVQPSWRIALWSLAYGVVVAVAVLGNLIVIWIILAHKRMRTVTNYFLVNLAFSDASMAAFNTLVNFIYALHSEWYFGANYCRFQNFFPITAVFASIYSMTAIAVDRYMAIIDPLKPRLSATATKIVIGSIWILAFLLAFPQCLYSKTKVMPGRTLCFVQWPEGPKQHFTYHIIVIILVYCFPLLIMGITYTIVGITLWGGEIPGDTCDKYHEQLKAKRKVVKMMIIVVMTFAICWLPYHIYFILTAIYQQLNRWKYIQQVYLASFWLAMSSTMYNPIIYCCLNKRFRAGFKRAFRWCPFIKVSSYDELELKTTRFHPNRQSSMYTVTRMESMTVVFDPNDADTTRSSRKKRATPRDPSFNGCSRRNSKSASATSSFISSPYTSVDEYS
Kind of test: binding of [^125 I]His[MePhe^7 ]NKB to the cloned human NK3 receptors expressed by CHO cells. The settings on record: from comparison of Ki values for human NK3 and other tachykinin receptors. The method, then:
In studies on the binding of a ligand, the inhibition constant Ki is defined by the Cheng-Prusoff equation (in Receptor Binding in Drug Research, eds. R. A. O'BRIEN. Marcel Dekker, New York, 1986): [formula] [L]: ligand concentration Kd: dissociation constant of the ligand,
The affinity of the compounds of formula (I') for the tachykinin receptors was evaluated in vitro by several biochemical assays using radioligands:
3) The binding of [^125 I]His[MePhe^7 ]NKB to the NK3 receptors of rat cerebral cortex, of guinea pig cerebral cortex and of gerbil cerebral cortex as well as to the cloned human NK3 receptors expressed by CHO cells (Buell et al., FEBS Letters, 1992, 299, 90-95).
The assays were carried out according to X. Emonds-Alt et al. (Eur. J. Pharmacol., 1993, 250, 403-413).

For test [1], the system named is NK3 receptor. As to the kind of experiment: hypertension induced by intravenous or intracerebroventricular injection of senktide in guinea pigs. The class given is in vivo, guinea pig. The settings on record: agonist alone. The method, then: (§1) The compounds according to the present invention were also evaluated in vivo on two animal models.
For test [2], the system named is NK3 receptor. Kind of test: rotating behavior induced by intrastriatal administration of senktide in gerbils. The class given is in vivo. The settings on record: unilateral application in the gerbil striatum; agonist alone. The protocol:
as §1

For the compound `Cl.O=C1CCC(CCN2CCC(O)(c3ccccc3)CC2)(c2ccc(Cl)c(Cl)c2)CN1Cc1ccccc1` (stereo not shown) [compound A, 5-[2-(4-hydroxy-4-phenylpiperid-1-yl)ethyl]-5-(3,4-dichlorophenyl)-1-benzylpiperid-2-one hydrochloride], the “selectivity / specificity for the human NK3 receptor” value on human NK3 receptor was “not selective for the human NK3 receptor”.

Turning to `CSCC[C@H](NC(=O)[C@H](CC(C)C)NC(=O)CNC(=O)[C@H](Cc1ccccc1)N(C)C(=O)[C@H](Cc1ccccc1)NC(=O)[C@H](CC(=O)O)NC(=O)CCC(=O)O)C(N)=O` [senktide] (HELM PEPTIDE1{[O=C(O)CCC(=O)[*:2]].D.F.[meF].G.L.M.[am]}$$$$V2.0), in the test on NK3 receptor [1], the hypertension result is recorded as “induces a hypertension”. The rotating behavior entry in the test with NK3 receptor [2] is given as “strong contralateral rotations”.

Turning to `CN(CC(CCCN1CCC(O)(c2ccccc2)CC1)c1ccc(Cl)c(Cl)c1)C(=O)c1ccccc1.Cl` (stereo not shown) [Example 22 of Application EP 474561, N-Methyl-N-[2-(3,4-dichlorophenyl)-5-(4-hydroxy-4-phenylpiperid-1-yl)pentyl]benzamide hydrochloride], the “selectivity / specificity for the human NK3 receptor” value on human NK3 receptor is “high specificity”.
